Literature values as cited in US10213443B2, “Tetracycline topical formulations, preparation and uses thereof in treating an ocular condition” (Hovione International Ltd., priority 2012, dated 2019).

How the values were obtained:
[1] = in man
[2] = compared with doxycycline

oral bioavailability [1]: ~100%
Structure (SMILES): CN(C)c1ccc(O)c2c1C[C@H]1C[C@H]3[C@H](N(C)C)C(O)=C(C(N)=O)C(=O)[C@@]3(O)C(O)=C1C2=O [Minocycline, minocycline]
phototoxicity [2]: not phototoxic
